Reference: PubChem BioAssay AID1259411 (Chemical Carcinogenesis Research Information System (CCRIS), 2018)
Active and inactive are the calls of the source. How the calls were made is not given here.

Test system: rodent carcinogenicity bioassays, tumor incidence
Assay: CCRIS carcinogenicity studies
Settings: Dose: 0, Dose: 0
In short: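 NCI-built, expert-reviewed records of carcinogenicity and related test outcomes (mutagenicity, tumor promotion/inhibition) compiled from published and report sources, historical span 1985-2011, not updated.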

## COc1ccc(OC(=O)N(CC(=O)O)Cc2ccc(OCCc3nc(-c4ccccc4)oc3C)cc2)cc1
Species: Mouse, Strain/Sex: Crl:CD-1 (ICR)BR/Female (60/group), Route: Oral, 1, 5, 20 mg/kg (initial group) or 0, 40 mg/kg (supplemental group) by gavage daily for up to 105 wks, vehicle cont, 1, 5, 20 mg/kg (initial group) or 0, 40 mg/kg (supplemental group) by gavage daily for up to 105 wks, vehicle cont
  carcinogen call: inactive; negative (slight increases in hemangiosarcoma (multiple organs) and mammary glan
Species: Mouse, Strain/Sex: Crl:CD-1 (ICR)BR/Male (60/group), Route: Oral, 1, 5, 20 mg/kg (initial group) or 0, 40 mg/kg (supplemental group) by gavage daily for up to 105 wks, vehicle cont, 1, 5, 20 mg/kg (initial group) or 0, 40 mg/kg (supplemental group) by gavage daily for up to 105 wks, vehicle cont, Tumor Site: Type of Lesion: GALLBLADDER: adenoma (1/60 at 20 mg/kg, 2/60 at 40 mg/kg), not significant
  carcinogen call: inactive; negative (although statistical significance was not obtained, the authors consid
Species: Rat, Strain/Sex: Hsd:Sprague Dawley SD/Female (65/group), Route: Oral, 1, 5, 30, 50 mg/kg by gavage daily for up to 105 wks, vehicle controls administered alkaline PEG-400, 1, 5, 30, 50 mg/kg by gavage daily for up to 105 wks, vehicle controls administered alkaline PEG-400, Tumor Site: Type of Lesion: SUBCUTANEOUS TISSUE: lipoma (50 mg/kg only). UTERUS: Squamous cell carcinoma, adenoma and carcinoma, and squamous cell p, Tumor Site: Type of Lesion: SUBCUTANEOUS TISSUE: lipoma (50 mg/kg only). UTERUS: Squamous cell carcinoma, adenoma and carcinoma, and squamous cell p
  carcinogen call: active; positive (weak response)
Species: Rat, Strain/Sex: Hsd:Sprague Dawley SD/Male (65/group), Route: Oral, 1, 5, 30, 50 mg/kg by gavage daily for up to 105 wks, vehicle controls administered alkaline PEG-400, 1, 5, 30, 50 mg/kg by gavage daily for up to 105 wks, vehicle controls administered alkaline PEG-400, Tumor Site: Type of Lesion: URINARY BLADDER: transitional cell carcinoma and papilloma at 5, 30, and 50 mg/kg associated with increased urinary soli
  carcinogen call: active; positive, muraglitazar reported to be a peroxisome proliferator-activated recept

## Cc1cc2ccccc2c2cc([N+](=O)[O-])c3ccccc3c12
Species: MOUSE, Strain/Sex: SWISS/FEMALE, Route: INTRAPERITONEAL, 100 NMOL (TOTAL DOSE) ADMINISTERED 1/7, 2/7 AND 4/7 ON DAY 1, 8 AND 15 RESPECTIVELY (STUDY DURATION: 32 WK), Tumor Site: Type of Lesion: LUNG: TUMOR
  carcinogen call: active; positive
Species: MOUSE, Strain/Sex: SWISS/MALE, Route: INTRAPERITONEAL, 100 NMOL (TOTAL DOSE) ADMINISTERED 1/7, 2/7 AND 4/7 ON DAY 1, 8 AND 15 RESPECTIVELY (STUDY DURATION: 32 WK), Tumor Site: Type of Lesion: LIVER: TUMOR, LUNG: TUMOR
  carcinogen call: active; positive

## Cc1c2ccccc2c(COS(=O)(=O)O)c2ccc3ccccc3c12
Species: MOUSE, Strain/Sex: B6C3F1/MALE, Route: INTRAPERITONEAL, 0.001, 0.003, 0.01 UMOL/G IN 5 µL/G DMSO ONCE ON D 12 OF AGE (STUDY DURATION: 10 MO), 0.001, 0.003, 0.01 UMOL/G IN 5 µL/G DMSO ONCE ON D 12 OF AGE (STUDY DURATION: 10 MO), Tumor Site: Type of Lesion: LIVER: HEPATOMA
  carcinogen call: active; positive
Species: MOUSE, Strain/Sex: B6C3F1/MALE, Route: INTRAPERITONEAL, 0.0025 UMO1/G IN 10 ML/G TRIOCTANOIN ON 12, 16, 20, AND 24 D OF AGE (STUDY DURATION: 10 MO), Tumor Site: Type of Lesion: LIVER: HEPATOMA
  carcinogen call: active; positive
Species: MOUSE, Strain/Sex: B6C3F1/MALE, Route: INTRAPERITONEAL, 0.0025 UMOL/G IN 10 µL/G TRIOCTANOIN ONCE ON D 12 OF AGE (STUDY DURATION: 10 MO), Tumor Site: Type of Lesion: LIVER: HEPATOMA
  carcinogen call: active; positive
Species: MOUSE, Strain/Sex: STRAIN-A/FEMALE, Route: INTRAPERITONEAL, 0.1 001;0.003, 0.01 UMOL/G IN 5 µL DMSO/G ONCE AT 4-6 WK OF AGE (STUDY DURATION: 6 MO), 0.1 001;0.003, 0.01 UMOL/G IN 5 µL DMSO/G ONCE AT 4-6 WK OF AGE (STUDY DURATION: 6 MO)
  carcinogen call: inactive; negative
Species: RAT, Strain/Sex: SPRAGUE-DAWLEY/FEMALE, Route: SUBCUTANEOUS, 0.2 UMOL 3/WK FOR 20 DOSES (STUDY DURATION: 52 WK), Tumor Site: Type of Lesion: INJECTION SITE: SARCOMA
  carcinogen call: active; positive
Species: RAT, Strain/Sex: SPRAGUE-DAWLEY/FEMALE, Route: SUBCUTANEOUS, 2 UMOL IN 0.25 ML TRIOCTANOIN INTO LEFT HIND LEG AT ABOUT 40 D OF AGE FOLLOWED BY A SECOND DOSE 6 D LATER (STUDY DURA
  carcinogen call: inactive; negative
Species: RAT, Strain/Sex: SPRAGUE-DAWLEY/FEMALE, Route: SUBCUTANEOUS, 2 UMOL IN 0.25 ML TRIOCTANOIN ONCE INTO LEFT HIND LEG AT ABOUT 40 D OF AGE (STUDY DURATION: 16 MO)
  carcinogen call: inactive; negative

## O=CC(O)C(O)C(O)C(O)COC1OC(COC2OC(CO)C(O)C(O)C2O)C(O)C(O)C1O (stereo not given)
Species: RAT, Strain/Sex: ACI/FEMALE, Route: ORAL, 2.5% (MOL. WT. 21500) IN DIET FOR 480 D (STUDY DURATION: 480 D)
  carcinogen call: inactive; negative
Species: RAT, Strain/Sex: ACI/MALE, Route: ORAL, 2.5% (MOL. WT. 21500) IN DIET FOR 480 D (STUDY DURATION: 480 D)
  carcinogen call: inactive; negative

## Nc1ccc(N=Nc2ccc(-c3ccc(N=Nc4c(S(=O)(=O)O)cc5c(c4N)C(=O)/C(=N/Nc4ccccc4)C(S(=O)(=O)O)=C5)cc3)cc2)c(N)c1
Species: MOUSE, Strain/Sex: ICR/MALE,FEMALE, Route: ORAL, 0.3% IN DRINKING WATER FOR LIFE (STUDY DURATION: 50-60 WK), Tumor Site: Type of Lesion: LIVER: HEPATOCELLULAR CARCINOMA, MAMMARY GLAND: ADENOCARCINOMA OR SQUAMOUS CELL CARCINOMA
  carcinogen call: active; positive
Species: RAT, Strain/Sex: F344/FEMALE, Route: ORAL, 190, 375, 750, 1500, 3000 PPM IN DIET FOR 91 D (STUDY DURATION:93 D), 190, 375, 750, 1500, 3000 PPM IN DIET FOR 91 D (STUDY DURATION:93 D), Tumor Site: Type of Lesion: LIVER: NEOPLASTIC NODULE, FOCI OF CELLULAR ALTERATION OR BASOPHILIC FOCI
  carcinogen call: active; positive
Species: RAT, Strain/Sex: F344/MALE, Route: ORAL, 190, 375, 750, 1500, 3000 PPM IN DIET FOR 91 D (STUDY DURATION: 93 D), 190, 375, 750, 1500, 3000 PPM IN DIET FOR 91 D (STUDY DURATION: 93 D), Tumor Site: Type of Lesion: LIVER: HEPATOCELLULAR CARCINOMA OR NEOPLASTIC NODULE, FOCI OF CELLULAR ALTERATION OR BASOPHILIC FOCI
  carcinogen call: active; positive

## Cc1cccc2ccccc12
Species: MOUSE, Strain/Sex: B6C3F1/FEMALE, Route: ORAL, 0.075, 0.15% IN DIET FOR 81 WK (STUDY DURATION: 81 WK), 0.075, 0.15% IN DIET FOR 81 WK (STUDY DURATION: 81 WK)
  carcinogen call: inactive; negative
Species: MOUSE, Strain/Sex: B6C3F1/MALE, Route: ORAL, 0.075, 0.15% IN DIET FOR 81 WK (STUDY DURATION: 81 WK), 0.075, 0.15% IN DIET FOR 81 WK (STUDY DURATION: 81 WK), Tumor Site: Type of Lesion: LUNG: ADENOMA
  carcinogen call: active; positive
